{"source": "patent US9539301B2", "about": "“Melanotropin ligands for skin care” (THE ARIZONA BOARD OF REGENTS ON BEHALF OF THE UNIVERSITY OF …, priority 2011, dated 2017)", "key": {"MC1R": {"target": "MC1R (Homo sapiens, UniProt Q01726)", "sequence (Q01726 whole entry)": "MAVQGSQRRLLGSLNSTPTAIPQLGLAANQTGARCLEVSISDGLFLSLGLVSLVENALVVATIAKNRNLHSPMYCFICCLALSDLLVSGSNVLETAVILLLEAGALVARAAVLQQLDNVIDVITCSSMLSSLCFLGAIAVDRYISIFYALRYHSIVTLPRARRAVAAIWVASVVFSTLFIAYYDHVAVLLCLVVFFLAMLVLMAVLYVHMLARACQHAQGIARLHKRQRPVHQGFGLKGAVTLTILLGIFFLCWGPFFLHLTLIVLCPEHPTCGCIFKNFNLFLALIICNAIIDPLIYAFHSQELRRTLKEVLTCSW", "details": "cited from earlier work"}, "MC5R": {"target": "MC5R (Homo sapiens, UniProt P33032)", "sequence (P33032 whole entry)": "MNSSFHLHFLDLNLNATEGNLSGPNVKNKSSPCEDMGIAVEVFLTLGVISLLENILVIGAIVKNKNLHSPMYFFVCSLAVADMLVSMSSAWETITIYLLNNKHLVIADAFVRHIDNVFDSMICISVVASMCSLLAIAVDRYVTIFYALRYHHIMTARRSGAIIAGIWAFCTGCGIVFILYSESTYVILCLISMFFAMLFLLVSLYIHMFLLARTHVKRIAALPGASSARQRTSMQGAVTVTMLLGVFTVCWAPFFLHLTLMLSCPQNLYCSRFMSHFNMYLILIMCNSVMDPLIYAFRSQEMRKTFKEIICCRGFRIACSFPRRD", "details": "footnote: value denotes an EC50; read-out: EC50 MC5R (values derived from literature); cited from earlier work"}, "MC4R": {"target": "MC4R (Homo sapiens, UniProt P32245)", "sequence (P32245 whole entry)": "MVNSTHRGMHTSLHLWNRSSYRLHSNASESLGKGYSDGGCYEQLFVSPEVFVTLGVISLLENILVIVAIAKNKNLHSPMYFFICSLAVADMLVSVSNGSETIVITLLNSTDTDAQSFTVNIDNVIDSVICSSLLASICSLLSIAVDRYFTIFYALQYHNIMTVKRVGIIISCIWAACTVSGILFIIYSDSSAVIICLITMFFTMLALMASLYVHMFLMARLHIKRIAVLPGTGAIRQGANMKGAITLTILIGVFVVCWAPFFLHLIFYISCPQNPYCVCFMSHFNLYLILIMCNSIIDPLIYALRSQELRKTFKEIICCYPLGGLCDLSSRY", "details": "footnote: value denotes an EC50; read-out: EC50 MC4R (values derived from literature); cited from earlier work"}, "A375/MC1R cells": {"test_system": "A375/MC1R cells", "test": "In vitro MC1R probe uptake study (fluorescence microscopy)", "format": "cell-based, human", "method": "Samples were viewed using an Axio Observer Z1 inverted fluorescence microscope (Carl Zeiss, Inc, Germany) using 40×/1.3NA oil immersion objectives through a narrow band Cy5 filter. Cy5 fluorescence images were prepared with a DIC overlay image using Axiovision 4.6 software (Carl Zeiss, Inc, Germany).\nTo study uptake of the MC1R probe onto and into cells, MC1RL-800 probe was incubated with live cells and images were acquired at different time-points after incubation using an inverted microscope."}, "[1]": {"details": "mouse, in vivo", "experimental": "(§1) Tumors, kidneys and liver were excised, rinsed with PBS, blotted dry, and then imaged ex vivo with Optix-MX3 as described above. Images were analyzed as described above.\n(§2) The pharmacokinetics of probe uptake and clearance was also characterized using a three-compartment mathematical model, which includes tumor, kidney and mouse volumes, and assumes mass conservation of the ligand. This model was used to account for the interference of the tumor ligand release in the uptake and clearance dynamics of blood and kidneys."}, "[2]": {"test_system": "A375/MC1R and A375 xenograft tumors", "test": "Tumor xenograft fluorescence imaging, in vivo tumor targeting and blocking", "set-up": "species or system nu/nu mice", "method": "Female nu/nu mice 6-8 weeks old (Harlan Sprague Dawley, Inc., Indianapolis, Ind.) were injected subcutaneously (s.c.) with 1×10^6 MC1R expressing A375 cells in the right and the parental one in the left flank. Tumor volume was determined with calipers using the formula: volume=(length×width^2)/2. Once tumors reached 500-800 mm^3, 1 nmol/kg-30 nmol/kg of MC1R imaging probe in 100 µL sterile saline was injected into the tail vein. In vivo fluorescence images were acquired using the Optix-MX3 (Advance Research Technologies, Inc. a subsidiary of SoftScan Healthcare Group, Montreal, Canada). Animals were positioned on a heating pad and anesthetized using isoflurane (flow 2-2.5 l/min). Fluorescence images were acquired using a scan resolution of 1.5 mm and a 790-nm pulsed laser diode with 40 MHz frequency and 12-ns time window. Images were analyzed using Optix-MX3 Optiview Software (version 3.01). Autofluorescence background was subtracted by determining the mean tumor fluorescence signal prior to injection, then mean normalized intensity values were obtained within a ROI on these images.\nTumors were excised and center slice of each tumor was imaged using both Optix-MX3 (as described above) and IVIS 200 imaging system (Caliper LifeSciences, MA). For IVIS 200 acquisitions, the standard ICG excitation and emission filter set was used for imaging. After imaging, the slices were fixed in formalin and embedded in paraffin for histology. Formalin fixed sections (5 µm) were stained with hematoxylin and eosin (H&E). […]\nTo investigate tumor targeting of the probe in vivo, bilateral subcutaneous xenograft tumors were established with A375/MC1R engineered cells in the right flank, and A375 parental cells with relatively low MC1R expression in the left flank. After tumor growth to approximately 500-800 mm^3, MC1RL-800 was injected intravenously and fluorescence accumulation was monitored over time. […] IHC staining confirmed the high and low MC1R expression in the two tumor types, and areas with the highest IHC staining corresponded to areas with the highest fluorescence signal (FIG. 27B)."}, "[3]": {"details": "mouse, in vivo, iv, 5 nmol/kg", "experimental": "as §1, §2"}, "[4]": {"format": "physicochemical", "details": "pH 7.4", "method": "The log of the octanol-water partition coefficient at pH 7.4 (log D7.4) was determined by miniaturised shake flask assay. Briefly, (200 µL to 1 mL) n-octanol (Sigam) was added to a solution of the test compound prepared in PBS (25 mM NaH2PO4/Na2HPO4 buffer, pH 7.4, Sigma, HPLC grade). Then, three different ratios of octanol to PBS buffer were prepared. The mixture was stirred in a vortex mixer at room temperature for 1 min and then two layers were separated by centrifuge. The concentration of compound in each layer was determined by HPLC (Poroshell 120 EC-C18 column) using (26% acetonitrile in water, 0.1% TFA) in 280 nm channel. All sample injections were performed 3 times, and the results were averaged to yield the final values.\nTo measure lipophilicity of the probe, log D (distribution co-efficient) was determined."}, "[5]": {"details": "A375/MC1R cells, after incubation"}, "[6]": {"details": "co-injection 0.25 μg NDP-a-MSH with 5 nmol/kg probe, 2 hr"}}, "note": "“Also recorded” adds a separate entry of the source. Square brackets hold non-standard residues; d marks the D form. Peptide text beside a SMILES is read from it. d2Nal = N[C@H](Cc1ccc2ccccc2c1)C(=O)O; Nle = CCCC[C@H](N)C(=O)O"}
{"compound": "NC(=O)[C@H](Cc1c[nH]c2ccccc12)NC(=O)[C@H](CCCN=C(N)N)NC(=O)[C@@H](Cc1ccccc1)NC(=O)[C@H](Cc1cnc[nH]1)NC(=O)CCCc1ccccc1", "note": "[Compound 1, 4-phenylbutyryl-His-DPhe-Arg-Trp-NH2]", "values": [{"measurement": "Ki", "setting": "MC1R; read-out: Ki MC1R (values derived from literature)", "value": 0.01, "unit": "nM"}]}
{"compound": "CCCC[C@H](NC(=O)[C@@H](NC(=O)[C@@H](N)Cc1ccc(O)cc1)C(C)C)C(=O)NCC(=O)N[C@@H](Cc1cnc[nH]1)C(=O)N[C@H](Cc1ccc2ccccc2c1)C(=O)N[C@@H](CCCN=C(N)N)C(=O)N[C@H](Cc1c[nH]c2ccccc12)C(=O)N[C@@H](CC(=O)O)C(=O)N[C@@H](CCCN=C(N)N)C(=O)N[C@@H](Cc1ccccc1)C(=O)NCC(N)=O", "note": "[Compound 5, H-Tyr-Val-Nle-Gly-His-DNal(2′)-Arg-DTrp-Asp-Arg-Phe-Gly-NH2]", "values": [{"measurement": "EC50", "setting": "MC5R", "value": 3.5, "unit": "nM"}]}
{"compound": "CCCC[C@H](NC(=O)[C@@H](NC(=O)[C@@H](N)Cc1ccc(O)cc1)C(C)C)C(=O)NCC(=O)N[C@@H](Cc1cnc[nH]1)C(=O)N[C@H](Cc1ccc2ccccc2c1)C(=O)N[C@@H](CCCNC(=N)N)C(=O)N[C@H](Cc1ccccc1)C(=O)N[C@@H](CC(=O)O)C(=O)N[C@@H](CCCNC(=N)N)C(=O)N[C@@H](Cc1ccccc1)C(=O)NCC(N)=O", "note": "[Compound 7, H-Tyr-Val-Nle-Gly-His-DNal(2′)-Arg-DPhe-Asp-Arg-Phe-Gly-NH2] (H-YV[Nle]GH[d2Nal]R[dF]DRFG-NH2)", "values": [{"measurement": "EC50", "setting": "MC5R", "value": 3.3, "unit": "nM"}, {"measurement": "EC50", "setting": "MC1R; footnote: value denotes an EC50, read-out: EC50 MC1R (values derived from literature)", "value": 1.6, "unit": "nM"}, {"measurement": "EC50", "setting": "MC4R", "value": 20, "unit": "nM"}]}
{"compound": "CC1(C)C(=CC=C2CCCC(C=CC3=[N+](CCCCCC(=O)NCCN4C(=O)CC(SCCC(=O)NCCCC[C@H](NC(=O)CNC(=O)[C@H](Cc5c[nH]c6ccccc56)NC(=O)[C@H](CCCNC(=N)N)NC(=O)[C@@H](Cc5ccccc5)NC(=O)[C@H](Cc5c[nH]cn5)NC(=O)CCCc5ccccc5)C(N)=O)C4=O)c4ccc(S(=O)(=O)[O-])cc4C3(C)C)=C2Oc2ccc(S(=O)(=O)O)cc2)N(CCCCS(=O)(=O)O)c2ccc(S(=O)(=O)O)cc21", "note": "(stereo partly drawn) [MC1RL-800, 4-phenylbutyryl-His-DPhe-Arg-Trp-Gly-Lys(Mpr-IR800CW)-NH2]", "values": [{"measurement": "probe binding after blocking with NDP-α-MSH", "setting": "A375/MC1R cells; 2 μM NDP-α-MSH added before probe", "value": "No attachment; also recorded: No binding or uptake"}, {"measurement": "time at which binding of probe to cell surface is observed", "setting": "A375/MC1R cells; [5]", "value": "≤ 15", "unit": "s"}, {"measurement": "time of intracellular accumulation / internalization", "setting": "A375/MC1R cells; [5]", "value": "≤ 5", "unit": "min"}, {"measurement": "accumulation in the liver", "setting": "[1]", "value": "did not accumulate"}, {"measurement": "kidney signal relative to tumor", "setting": "[1]", "value": 2, "unit": "fold"}, {"measurement": "normalized fluorescence signal of A375 (low MC1R) tumors compared to A375/MC1R tumors", "setting": "[2]; 2 h post-injection, n=3", "value": "significantly lower"}, {"measurement": "decrease of probe fluorescence signal after blocking, A375/MC1R tumors", "setting": "[2]; [6]", "value": 1.54, "unit": "fold"}, {"measurement": "decrease of probe fluorescence signal after blocking, A375 tumor", "setting": "[2]; [6]", "value": 1.4, "unit": "fold"}, {"measurement": "half-life", "setting": "[3]", "value": "~10", "unit": "h"}, {"measurement": "logD", "setting": "[4]", "value": -2.96}]}
